Source: patent US10597390B2, “Indoles for use in influenza virus infection” (Janssen Sciences Ireland UC, priority 2014, dated 2020)

How the values were obtained:
[1] = system: influenza virus A/Taiwan/1/86 (H1N1); test: organism not typed; format: cell-based; settings: CPE in MDCK cells, three days post-virus exposure, ATPlite
[2] = in vitro; settings: dog, TOX MDCK CC50

SMILES	IC50 ([1]; MDCK, 72 h) [nM]	CC50 at 3 days [2] [nM]	IC50 [1] [nM]
O=C(N[C@@H]1CCC[C@H](Nc2nc(-c3c[nH]c4c(F)cc(F)cc34)ncc2F)C1)N1CCCC1 (racemic) [Compound 1, N-((cis)-3-((2-(5,7-difluoro-1H-indol-3-yl)-5-fluoropyrimidin-4-yl)amino)cyclohexyl)pyrrolidine-1-carboxamide]	3	10200	
CC(C)(C)C(CC(=O)O)Nc1nc(-c2c[nH]c3c(F)cc(F)cc23)ncc1F (racemic) [Compound 2]	11	5200	
Cn1cnc(C(=O)N[C@@H]2CCC[C@H](Nc3nc(-c4c[nH]c5c(F)cc(F)cc45)c(C#N)cc3F)C2)c1 (racemic) [Compound 3]	5	> 25000	
N#Cc1cc(F)c(N[C@H]2CCC[C@@H](NC(=O)N3CCCC3)C2)nc1-c1c[nH]c2c(F)cc(F)cc12 (racemic) [Compound 4]	4	> 25000	
CC(=O)NCc1cc(F)c(N[C@H]2CCC[C@@H](NC(=O)N3CCCC3)C2)nc1-c1c[nH]c2c(F)cc(F)cc12 (racemic) [Compound 6]	50	> 25000	
O=C(N[C@@H]1CCC[C@H](Nc2nc(-c3c[nH]c4c(F)ccc(F)c34)ncc2F)C1)N1CCCC1 (racemic) [Compound 7]	460	> 25000	
O=C(N[C@H]1CCC[C@@H](Nc2nc(-c3c[nH]c4c(F)cc(F)cc34)c(-c3nnc[nH]3)cc2F)C1)N1CCCC1 (racemic) [Compound 24]	420	> 25000	
O=C(N[C@@H]1CCC[C@H](Nc2nc(-c3c[nH]c4c(F)cc(F)cc34)ncc2F)C1)c1ccccn1 (racemic) [Compound 90]	9	10900	
Cn1cnc(C(=O)N[C@@H]2CCC[C@H](Nc3nc(-c4c[nH]c5c(F)cc(F)cc45)ncc3F)C2)c1 (racemic) [Compound 92]	4	11400	
Cc1nc(C(=O)N[C@@H]2CCC[C@H](Nc3nc(-c4c[nH]c5c(F)cc(F)cc45)ncc3F)C2)c(C)o1 (racemic) [Compound 93]	39	> 25000	
Cn1cccc1C(=O)N[C@@H]1CCC[C@H](Nc2nc(-c3c[nH]c4c(F)cc(F)cc34)ncc2F)C1 (racemic) [Compound 94]	5	18400	
O=C(N[C@@H]1CCC[C@H](Nc2nc(-c3c[nH]c4c(F)cc(F)cc34)ncc2F)C1)c1ccc(F)cn1 (racemic) [Compound 95]	12	> 25000	
Cc1cc(C(=O)N[C@@H]2CCC[C@H](Nc3nc(-c4c[nH]c5c(F)cc(F)cc45)ncc3F)C2)nn1C (racemic) [Compound 96]	5	10500	
O=C(N[C@@H]1CCC[C@H](Nc2nc(-c3c[nH]c4c(F)cc(F)cc34)ncc2F)C1)c1ccno1 (racemic) [Compound 97]	12	> 22700	
Cc1cc(F)c2[nH]cc(-c3ncc(F)c(N[C@H]4C5CCC(CC5)[C@@H]4C(=O)O)n3)c2c1 (racemic) [Compound 164]	11	1700	
N#Cc1cc(F)c2[nH]cc(-c3ncc(F)c(N[C@H]4CCC[C@@H](NC(=O)c5ccccn5)C4)n3)c2c1 (racemic) [Compound 173]	13	> 25000	
Cn1cnc(C(=O)N[C@@H]2CCC[C@H](Nc3nc(-c4c[nH]c5c(F)cc(C#N)cc45)ncc3F)C2)c1 (racemic) [Compound 174]	10	> 25000	
Cc1cc(C(=O)N[C@H]2CCC[C@@H](Nc3nc(-c4c[nH]c5c(F)cc(F)cc45)c(C(F)(F)F)cc3F)C2)nn1C (racemic) [Compound 177]	38	14700	
O=C(N[C@H]1CCC[C@@H](Nc2nc(-c3c[nH]c4c(F)cc(F)cc34)c(C(F)(F)F)cc2F)C1)c1ncn[nH]1 (racemic) [Compound 178]	10	2600	
Cc1nc(C(=O)N[C@H]2CCC[C@@H](Nc3nc(-c4c[nH]c5c(F)cc(F)cc45)c(C(F)(F)F)cc3F)C2)c(C)o1 (racemic) [Compound 179]	81	> 25000	

SMILES	IC50 ([1]; MDCK, 72 h) [nM]	CC50 at 3 days [2] [nM]	IC50 [1] [nM]
O=C(N[C@H]1CCC[C@@H](Nc2nc(-c3c[nH]c4c(F)cc(F)cc34)c(C(F)(F)F)cc2F)C1)c1cnccn1 (racemic) [Compound 180]	20	> 25000	
Cc1cc(C(=O)N[C@H]2CCC[C@@H](Nc3nc(-c4c[nH]c5c(F)cc(F)cc45)c(C(F)(F)F)cc3F)C2)on1 (racemic) [Compound 181]	11	16400	
CC(C)c1cc(C(=O)N[C@H]2CCC[C@@H](Nc3nc(-c4c[nH]c5c(F)cc(F)cc45)c(C(F)(F)F)cc3F)C2)no1 (racemic) [Compound 182]		> 25000	
Cn1cnc(C(=O)N[C@H]2CCC[C@@H](Nc3nc(-c4c[nH]c5c(F)cc(Cl)cc45)c(C#N)cc3F)C2)c1 (racemic) [Compound 189]	4	7300	
Cc1cc(F)c2[nH]cc(-c3ncc(F)c(N[C@H]4CCC[C@@H](NC(=O)c5cn(C)cn5)C4)n3)c2c1 (racemic) [Compound 190]	11	13100	
N#Cc1cc(F)c(N[C@H]2CCC[C@@H](NC(=O)c3ccccn3)C2)nc1-c1c[nH]c2c(F)cc(F)cc12 (racemic) [Compound 208]	6	> 25000	
Cc1cc(C(=O)N[C@@H]2CCC[C@H](Nc3nc(-c4c[nH]c5c(F)cc(F)cc45)c(C#N)cc3F)C2)nn1C (racemic) [Compound 210]		> 25000	12
O=C(O)[C@H]1[C@@H]2CC[C@@H](C2)[C@@H]1Nc1nc(-c2c[nH]c3c(F)cc(F)cc23)ncc1F (racemic) [Compound 217, (+/−)-(2-exo, 3-endo)-3-((2-(5,7-difluoro-1H-indol-3-yl)-5-fluoropyrimidin-4-yl)amino)bicyclo[2.2.1]heptane-2-carboxylic Acid]	22	5000	
CC[C@]1(C(=O)O)CCCC[C@@H]1Nc1nc(-c2c[nH]c3c(F)cc(F)cc23)ncc1F (racemic) [Compound 252]	350	8200	
CC(=O)NCc1cc(F)c(N[C@H]2CCC[C@@H](NC(=O)c3cn(C)cn3)C2)nc1-c1c[nH]c2c(F)cc(F)cc12 (racemic) [Compound 258]	160	> 25000	
O=C(N[C@@H]1CCC[C@H](Nc2nc(-c3c[nH]c4c(F)cc(C(F)(F)F)cc34)ncc2F)C1)c1ccccn1 (racemic) [Compound 263]	15	3900	
C[C@@H]1CC[C@H](C)N1C(=O)N[C@H]1CCC[C@@H](Nc2nc(-c3c[nH]c4c(F)cc(F)cc34)ncc2F)C1 (relative stereo) [Compound 13, N-((1R*,3S*)-3-((2-(5,7-difluoro-1H-indol-3-yl)-5-fluoropyrimidin-4-yl)-amino)cyclohexyl)-cis-2,5-dimethylpyrrolidine-1-carboxamide]	44	10700	
C[C@H]1CC[C@H](C)N1C(=O)N[C@H]1CCC[C@@H](Nc2nc(-c3c[nH]c4c(F)cc(F)cc34)ncc2F)C1 (relative stereo) [Compound 14, N-((1R*3S*)-3-((2-(5,7-difluoro-1H-indol-3-yl)-5-fluoropyrimidin-4-yl)amino)cyclohexyl)-trans-2,5-dimethylpyrrolidine-1-carboxamide]	140	10400	
O=C(NC1CCOC1)N[C@@H]1CCC[C@H](Nc2nc(-c3c[nH]c4c(F)cc(F)cc34)ncc2F)C1 (relative stereo) [Compound 15, 1-((1R*,3S*)-3-((2-(5,7-difluoro-1H-indol-3-yl)-5-fluoropyrimidin-4-yl)-amino)cyclohexyl)-3-(tetrahydrofuran-3-yl)urea]	42	> 25000	
Cn1cnc(C(=O)N[C@H]2CCC[C@@H](Nc3nc(-c4c[nH]c5c(F)cc(F)cc45)c(C(F)(F)F)cc3F)C2)c1 (relative stereo) [Compound 16, N-((1S*,3R*)-3-((6-(5,7-difluoro-1H-indol-3-yl)-3-fluoro-5-(trifluoromethyl)pyridin-2-yl)amino)cyclohexyl)-1-methyl-1H-imidazole-4-carboxamide]	22	3900	
Cn1nc(C(=O)O)cc1C(=O)N[C@@H]1CCC[C@H](Nc2nc(-c3c[nH]c4c(F)cc(F)cc34)ncc2F)C1 (relative stereo) [Compound 159, 5-(((1R*,3S*)-3-((2-(5,7-difluoro-1H-indol-3-yl)-5-fluoropyrimidin-4-yl)amino)cyclohexyl)carbamoyl)-1-methyl-1H-pyrazole-3-carboxylic acid]	310	> 25000	
Cn1nc(NS(C)(=O)=O)cc1C(=O)N[C@@H]1CCC[C@H](Nc2nc(-c3c[nH]c4c(F)cc(F)cc34)ncc2F)C1 (relative stereo) [Compound 226, N-((1R*,3S*)-3-((2-(5,7-difluoro-1H-indol-3-yl)-5-fluoropyrimidin-4-yl)-amino)cyclohexyl)-1-methyl-3-(methylsulfonamido)-1H-pyrazole-5-carboxamide]	3	17500	
Cn1nc(NS(N)(=O)=O)cc1C(=O)N[C@@H]1CCC[C@H](Nc2nc(-c3c[nH]c4c(F)cc(F)cc34)ncc2F)C1 (relative stereo) [Compound 227, N-((1R*,3S*)-3-((2-(5,7-difluoro-1H-indol-3-yl)-5-fluoropyrimidin-4-yl)-amino)cyclohexyl)-1-methyl-3-(sulfamoylamino)-1H-pyrazole-5-carboxamide]	15	> 25000	
CC(=O)Nc1cc(C(=O)N[C@@H]2CCC[C@H](Nc3nc(-c4c[nH]c5c(F)cc(F)cc45)ncc3F)C2)n(C)n1 (relative stereo) [Compound 228, 3-acetamido-N-((1R*,3S*)-3-((2-(5,7-difluoro-1H-indol-3-yl)-5-fluoropyrimidin-4-yl)amino)cyclohexyl)-1-methyl-1H-pyrazole-5-carboxamide]	9	> 25000	
